The source of these data is patent publication US6090787A, “Antithrombotic agents” (Eli Lilly and Company, priority 1999, dated 2000).

The target of test [1] is T1, Human plasmin (Homo sapiens, UniProt P00747).
T1 construct: Human plasmin is purchased from Boehringer Mannheim; purchased Boehringer Mannheim, Indianapolis, Indiana
Put plainly: Fibrinolytic protease selectivity, Kass, plasmin chromogenic assay. It counts as biochemical. Conditions: apparent association constant. As to the method:
(§1) By substantially following the procedures described above for human thrombin, and using other human blood coagulation system serine proteases and proteases of the fibrinolytic system with the appropriate chromogenic substrates, identified below, selectivity of the compounds of the present invention with respect to the coagulation factor serine proteases and with respect to the fibrinolytic system serine proteases are evaluated as well as their substantial lack of interference with serine proteases of the fibrinolytic system. Thrombin inhibitors preferably should spare fibrinolysis induced by urokinase, tissue plasminogen activator (t-PA) and streptokinase. This would be important to the therapeutic use of such agents as an adjunct to streptokinase, t-PA or urokinase thrombolytic therapy and to the use of such agents as an endogenous fibrinolysis-sparing (with respect to t-PA and urokinase) antithrombotic agent. In addition to the lack of interference with the amidase activity of the fibrinolytic proteases, such fibrinolytic system sparing can be studied by the use of human plasma clots and their lysis by the respective fibrinolytic plasminogen activators.
(§2) Human plasmin is purchased from Boehringer Mannheim, Indianapolis, Indiana; nt-PA is purchased as single chain activity reference from American Diagnostica, Greenwich, Conn.; modified-t-PA6 (mt-PA6) is prepared at Eli Lilly and Company by procedure known in the art (See, Burck, et al., J. Biol. Chem., 265, […] (1990). Plasmin chromogenic substrate H--D--Val--Leu--Lys--p--nitroanilide and tissue plasminogen activator (t-PA) substrate H--D--Ile--Pro--Arg--p--nitroanilide are purchased from Kabi Vitrum, Stockholm, Sweden.

Test [2] relates to human plasma. Put plainly: Human plasma anticoagulation, thrombin time (TT). Particulars: concentration required to double the thrombin time, linear extrapolation. On the procedure:
(§3) Dog plasma and rat plasma is obtained from conscious mixed-breed hounds (either sex, Hazelton-LRE, Kalamazoo, Mich., U.S.A.) or from anesthetized male Sprague-Dawley rats (Harlan Sprague-Dawley, Inc., Indianapolis, Ind., U.S.A.) by venipuncture into 3.8 percent citrate. Fibrinogen is prepared from in-date ACD human blood as the fraction I-2 according to previous procedures and specifications. Smith, Biochem. J., 185, 1-11 (1980); and Smith, et al., Biochemistry, 11, 2958-2967 (1972). Human fibrinogen is also purchased as 98 percent pure/plasmin free from American Diagnostica, Greenwich, Conn. Coagulation reagents ACTIN, Thromboplastin, and Human plasma are from Baxter Healthcare Corp., Dade Division, Miami, Fla. Bovine thrombin from Parke-Davis ([…], Mich.) is used for coagulation assays in plasma.
(§4) Coagulation assay procedures are as previously described. Smith, et al., Thrombosis Research, 50, 163-174 (1988). A CoAScreener coagulation instrument (American LABor, Inc.) is used for all coagulation assay measurements. The prothrombin time (PT) is measured by adding 0.05 mL saline and 0.05 mL Thromboplastin-C reagent to 0.05 mL test plasma. The activated partial thromboplastin time (APTT) is measured by incubation of 0.05 mL test plasma with 0.05 mL Actin reagent for 120 seconds followed by 0.05 mL CaCl2 (0.02 M). The thrombin time (TT) is measured by adding 0.05 mL saline and 0.05 mL thrombin (10 NIH units/mL) to 0.05 mL test plasma. The compounds of formula I are added to human or animal plasma over a wide range of concentrations to determine prolongation effects on the APTT, PT, and TT assays. Linear extrapolations are performed to estimate the concentrations required to double the clotting time for each assay.

Test [3] concerns human plasma. Put plainly: Human plasma anticoagulation, prothrombin time (PT). Particulars: concentration required to double the PT, linear extrapolation. On the procedure: as §3, §4
Test [4] has as its system human plasma. Put plainly: Human plasma anticoagulation, activated partial thromboplastin time (APTT). Conditions: concentration required to double the APTT, linear extrapolation. On the procedure: as §3, §4
In test [5] the target is T2, Bovine trypsin (Bos taurus, UniProt P00760).
T2 construct: purchased Worthington Biochemicals, Freehold, N.J
T2 sequence (P00760 24-246): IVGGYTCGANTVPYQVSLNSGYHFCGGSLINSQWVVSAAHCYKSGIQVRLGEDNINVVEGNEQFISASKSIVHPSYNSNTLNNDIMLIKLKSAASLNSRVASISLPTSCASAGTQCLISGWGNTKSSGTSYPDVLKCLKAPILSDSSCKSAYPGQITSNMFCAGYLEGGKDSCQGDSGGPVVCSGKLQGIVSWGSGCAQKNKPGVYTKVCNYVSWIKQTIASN
Put plainly: Serine protease selectivity, Kass, trypsin chromogenic assay. Particulars: apparent association constant. It counts as biochemical. On the procedure: as §1
(§5) Human factors X, Xa, IXa, XIa, and XIIa are purchased from Enzyme Research Laboratories, South Bend, Ind.; human urokinase from Leo Pharmaceuticals, Denmark; and recombinant activated Protein C (aPC) is prepared at Eli Lilly and Co. substantially according to U.S. Pat. No. 4,981,952 incorporated by reference herein in its entirety. Chromogenic substrates: N--Benzoyl--Ile--Glu--Gly--Arg--p--nitroanilide (for factor Xa); N--Cbz--D--Arg--Gly--Arg--p--nitroanilide (for factor IXa assay as the factor Xa substrate); Pyroglutamyl--Pro--Arg--p--nitroanilide (for Factor XIa and for aPC); H--D--Pro--Phe--Arg--p--nitroanilide (for factor XIIa); and Pyroglutamyl--Gly--Arg--p--nitroanilide (for urokinase); are purchased from KabiVitrum, Stockholm, Sweden, or from Midwest Biotech, Fishers, Indiana. Bovine trypsin is purchased from Worthington Biochemicals, Freehold, N.J., and human plasma kallikrein from Kabi Vitrum, Stockholm, Sweden. Chromogenic substrate H--D--Pro--Phe--Arg--p--nitroanilide for plasma kallikrein is purchased from Kabi Vitrum, Stockholm, Sweden. N--Benzoyl--Phe--Val--Arg--p--nitroanilide, the substrate for human thrombin and for trypsin, is synthesized according to procedures described above for the compounds of the present invention, using known methods of peptide coupling from commercially available reactants or purchased from Midwest Biotech, Fishers, Ind.

Test [6] deals with T3, human thrombin (Homo sapiens, UniProt P00734).
T3 construct: purified human thrombin, Enzyme Research Laboratories; purchased Enzyme Research Laboratories, South Bend, Indiana
Put plainly: Inhibition of amidase activity of thrombin (Kass), chromogenic substrate. Format: biochemical. Conditions: apparent association constant, mean over a range of concentrations. On the procedure: The assay is carried out by mixing 50 μL buffer (0.03 M Tris, 0.15 M NaCl, pH 7.4) with 25 μL of bovine thrombin or human thrombin solution (0.21 mg/mL of thrombostat bovine thrombin, Parke-Davis, or purified human thrombin, Enzyme Research Laboratories, South Bend, Indiana, at about 8 NIH units/mL, in the same buffer) and 25 μL of test compound in a solvent (in 50% aqueous methanol, v:v). The 150 μL of an aqueous solution of the chromogenic substrate (at 0.25 mg/mL) are added and the rates of hydrolysis of the substrate are measured by monitoring the reactions at 405 nm for the release of p-nitroaniline. Standard curves are constructed by plotting free thrombin concentration against hydrolysis rate. The hydrolysis rates observed with test compounds are then converted to "free thrombin" values in the respective assays by use of the standard curves. The bound thrombin (bound to test compound) is calculated by subtracting the amount of free thrombin observed in each assay from the known initial amount of thrombin used in the assay. The amount of free inhibitor in each assay is calculated by subtracting the number of moles of bound thrombin from the number of moles of added inhibitor (test compound).
The Kass value is the hypothetical equilibrium constant for the reaction between thrombin and the test compound (I). [formula]
Kass is calculated for a range of concentrations of test compounds and the mean value is reported in units of liter per mole.

Test [7] deals with T4, tissue plasminogen activator (t-PA) (Homo sapiens, UniProt P00750).
T4 construct: purchased American Diagnostica, Greenwich, Conn
T4 sequence (P00750 36-562): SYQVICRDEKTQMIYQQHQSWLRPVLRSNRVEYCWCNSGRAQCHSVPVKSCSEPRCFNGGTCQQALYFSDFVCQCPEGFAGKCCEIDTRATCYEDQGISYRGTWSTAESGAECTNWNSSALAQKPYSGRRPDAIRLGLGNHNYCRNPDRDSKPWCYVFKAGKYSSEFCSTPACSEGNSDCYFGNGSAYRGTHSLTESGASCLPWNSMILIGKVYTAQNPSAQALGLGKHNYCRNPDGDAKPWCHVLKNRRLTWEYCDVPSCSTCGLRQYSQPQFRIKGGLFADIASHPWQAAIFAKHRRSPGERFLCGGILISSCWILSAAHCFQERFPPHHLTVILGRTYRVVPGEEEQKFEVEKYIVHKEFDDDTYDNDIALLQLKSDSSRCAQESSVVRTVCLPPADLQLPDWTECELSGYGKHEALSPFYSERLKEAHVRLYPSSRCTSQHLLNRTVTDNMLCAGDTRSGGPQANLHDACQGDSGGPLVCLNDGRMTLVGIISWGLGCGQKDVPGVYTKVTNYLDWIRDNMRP
Put plainly: Fibrinolytic protease selectivity, Kass, t-PA chromogenic assay. It counts as biochemical. Conditions: apparent association constant. On the procedure:
as §1, §2

The target of test [8] is T5, factor Xa (Homo sapiens, UniProt P00742).
T5 construct: Human factors X, Xa, IXa, XIa, and XIIa are purchased from Enzyme Research Laboratories; purchased Enzyme Research Laboratories, South Bend, Ind
T5 sequence (P00742 235-488 limits assumed): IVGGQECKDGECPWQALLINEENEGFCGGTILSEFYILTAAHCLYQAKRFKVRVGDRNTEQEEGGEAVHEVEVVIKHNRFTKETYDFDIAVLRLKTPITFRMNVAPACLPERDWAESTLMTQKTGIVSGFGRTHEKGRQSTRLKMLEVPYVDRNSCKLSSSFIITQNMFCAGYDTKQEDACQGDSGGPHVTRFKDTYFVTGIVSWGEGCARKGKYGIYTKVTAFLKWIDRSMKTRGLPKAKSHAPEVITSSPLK
T5 sequence (P00742 41-179 partner limits assumed): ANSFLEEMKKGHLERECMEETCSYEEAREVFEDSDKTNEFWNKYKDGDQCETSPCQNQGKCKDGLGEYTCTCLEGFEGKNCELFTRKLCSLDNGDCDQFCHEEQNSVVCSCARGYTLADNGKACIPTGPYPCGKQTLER
Put plainly: Serine protease selectivity, Kass, factor Xa chromogenic assay. Format: biochemical. Conditions: apparent association constant. On the procedure: as §1, §5

T1 sequence (P00747 581-810 limits assumed): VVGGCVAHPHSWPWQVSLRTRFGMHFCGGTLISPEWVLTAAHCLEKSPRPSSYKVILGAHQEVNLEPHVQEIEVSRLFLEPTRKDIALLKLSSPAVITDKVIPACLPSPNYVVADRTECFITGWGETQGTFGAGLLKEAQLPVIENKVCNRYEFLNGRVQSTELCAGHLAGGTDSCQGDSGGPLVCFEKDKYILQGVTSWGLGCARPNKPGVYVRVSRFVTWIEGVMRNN
T1 sequence (P00747 97-580 partner limits assumed): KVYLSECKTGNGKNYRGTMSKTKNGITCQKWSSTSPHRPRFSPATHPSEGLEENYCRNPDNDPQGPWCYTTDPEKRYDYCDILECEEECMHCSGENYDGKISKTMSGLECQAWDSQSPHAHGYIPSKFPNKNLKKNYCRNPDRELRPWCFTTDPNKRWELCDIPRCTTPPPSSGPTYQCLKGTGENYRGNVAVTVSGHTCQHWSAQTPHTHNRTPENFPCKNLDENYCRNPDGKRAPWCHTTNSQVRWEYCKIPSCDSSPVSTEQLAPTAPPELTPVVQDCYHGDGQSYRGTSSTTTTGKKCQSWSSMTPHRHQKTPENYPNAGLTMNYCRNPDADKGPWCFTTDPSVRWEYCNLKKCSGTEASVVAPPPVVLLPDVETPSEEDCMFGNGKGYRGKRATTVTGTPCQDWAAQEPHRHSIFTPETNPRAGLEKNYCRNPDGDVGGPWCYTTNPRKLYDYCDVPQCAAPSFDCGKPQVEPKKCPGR

`Cl.Cl.N=C(N)NCCC[C@@H](C=O)NC(=O)CN(C(=O)[C@H]1CCCCN1)c1ccccc1` [Example 11, D--hPro--N(Ph)Gly--ArgH.2HCl]: in test [1], the “Enzyme Kass Plasmin” value was determined as 0.036 L/mol × 10^6. Further, the “Human Plasma Anticoagulation 2 × Clotting time TT” value in test [2] was 120 ng/mL. Besides, the “Human Plasma Anticoagulation 2 × Clotting time PT” value in test [3] is on record as 3,100 ng/mL. Also, the “Human Plasma Anticoagulation 2 × Clotting time APTT” value in test [4] is recorded as 2,200 ng/mL. In addition, the “Enzyme Kass Trypsin” value in test [5] came to 1.1 L/mol × 10^6. The “Enzyme Kass Human Thrombin” value in test [6] is 16 L/mol × 10^6. In addition, the “Enzyme Kass t-PA” value in test [7] is recorded as 0.0039 L/mol × 10^6. For the same compound, the “Enzyme Kass Xa” value in test [8] was found to be 0.21 L/mol × 10^6.

On to `CCS(=O)(=O)N[C@H](Cc1ccccc1)C(=O)N(C)CC(=O)N[C@H](C=O)CCCNC(=N)N.Cl.Cl` [Example 16, N-(ethylsulfonyl)-D-phenylalanyl-N-methylglycyl-L-argininal dihydrochloride], for which the “Enzyme Kass Plasmin” value in test [1] was found to be 1.5 L/mol × 10^6. Further, in test [2], the “Human Plasma Anticoagulation 2 × Clotting time TT” value is given as 30 ng/mL. Moreover, the “Human Plasma Anticoagulation 2 × Clotting time PT” value in test [3] is 1,600 ng/mL. For the same compound, the “Human Plasma Anticoagulation 2 × Clotting time APTT” value in test [4] is reported as 1,200 ng/mL. Besides, the “Enzyme Kass Trypsin” value in test [5] stood at 22 L/mol × 10^6. Further, the “Enzyme Kass Human Thrombin” value in test [6] came to 37 L/mol × 10^6. In addition, the “Enzyme Kass t-PA” value in test [7] came out at 1.2 L/mol × 10^6. Moreover, the “Enzyme Kass Xa” value in test [8] is on record as 3.3 L/mol × 10^6.

For the compound `Cl.Cl.N=C(N)NCCC[C@@H](C=O)NC(=O)CN(CCCCC(=O)O)C(=O)[C@H]1CCCCN1` [Example 15, D--hPro--N(CH2 CH2 CH2 CH2 COOH)Gly--ArgH.2HCl], the “Enzyme Kass Plasmin” value in test [1] is recorded as 0.020 L/mol × 10^6. The “Human Plasma Anticoagulation 2 × Clotting time TT” value in test [2] is on record as 670 ng/mL. In addition, the “Human Plasma Anticoagulation 2 × Clotting time PT” value in test [3] is on record as 21,000 ng/mL. The “Human Plasma Anticoagulation 2 × Clotting time APTT” value in test [4] is 15,000 ng/mL. The “Enzyme Kass Trypsin” value in test [5] turned out to be 0.99 L/mol × 10^6. Moreover, the “Enzyme Kass Human Thrombin” value in test [6] was 1.8 L/mol × 10^6. The “Enzyme Kass t-PA” value in test [7] was found to be 0.001 L/mol × 10^6. The “Enzyme Kass Xa” value in test [8] turned out to be 0.078 L/mol × 10^6.
